Laboratory results reported in US12226418B2, “Dosing regimen for the treatment of PI3K related disorders” (Incyte Corporation, priority 2018, dated 2025).

Columns and labels:
[1] = system: Pfeiffer cell line (diffuse large B cell lymphoma); experiment: Pfeiffer cell proliferation assay; type: cell-based, human; details: for IC50: Homo sapiens, Pfeiffer, [3H]-thymidine incorporation
Protocol: Pfeiffer cell line (diffuse large B cell lymphoma) are purchased from ATCC (Manassas, VA) and maintained in the culture medium recommended (RPMI and 10% FBS). To measure the anti-proliferation activity of the compounds, the Pfeiffer cells are plated with the culture medium (2×10^3 cells/well/per 200 μl) into 96-well ultra-low binding plates (Corning, Corning, NY), in the presence or absence of a concentration range of test compounds. After 3-4 days, [^3H]-thymidine (1 μCi/well) (PerkinElmer, Boston, MA) in PBS is then added to the cell culture for an additional 12 hours before the incorporated radioactivity is separated by filtration with water through GF/B filters (Packard Bioscience, Meridenj, CT) and measured by liquid scintillation counting with a TopCount (Packard Bioscience).

[2] = system: relapsed or refractory B-cell malignancies; experiment: Efficacy, Compound 1C monotherapy; type: in vivo, human; details: for durable response: included QW dosing
Protocol: The secondary endpoints were efficacy and PK. Efficacy was measured by best overall response rate (ORR), defined as the proportion of patients achieving a partial response (PR) or complete response (CR). Response was evaluated (per investigator's assessment) every 9 weeks based on the Lugano classification of lymphoma response criteria for HL and NHL (Cheson B. D. et al, Journal of Clinical Oncology, 2014; 32(27):3059-3067), the International Working Group on Chronic Lymphocytic Leukemia criteria for chronic lymphocytic leukemia (CLL) (Hallek M. et al, Blood, 2008; 111(12):5446-5456; Cheson B. D. et al, J Clin Oncol, 2012; 30(23):2820-2822)), and the VIth International Workshop on Waldenström Macroglobulinemia response assessment for Waldenström Macroglobulinemia (WM) (Owen R. G. et al, Br J Haematol, 2013; 160(2):171-176). If the patient's response to treatment was assessed by PET and CTI/MRI, then the PET result was used for response endpoints; CT/MRI result was used for an assessment if PET result was not available for the assessment; CT/MRI was used for response endpoints if it was the only form of assessment available for the patient.
(§1) Exploratory endpoints included: duration of response (DOR, duration of time from first response to death or disease progression, whichever occurred first); progression free survival (PFS, duration of time from first study dose to death or disease progression, whichever occurred first); population PK; pharmacodynamic (PD) relationship between PI3Kδ inhibition (as determined by an ex vivo phosphorylated AKT [pAKT] assay).

[3] = system: phosphorylated AKT (pAKT; Ser473) in SU-DHL cells; experiment: Ex vivo phosphorylated AKT (pAKT) pharmacodynamic assay in patient whole blood; type: cell-based, human; details: all Compound 1C doses, up to 6 hours post-dose
Protocol: Compound 1C was dosed once daily and levels of phosphorylated AKT (pAKT; Ser473) were measured by flow cytometry in SU-DHL cells added to patient whole blood after Compound 1C treatment on day 15 of cycle 1.
as §1

[4] = Clinical pharmacokinetics and food effect, Compound 1C monotherapy; type: in vivo
Protocol: Patients were assessed on Days 1, 8, and 15 of Cycle 1 and Day 1 (±3) of each subsequent treatment cycle.

CCOc1c(C(C)n2nc(C)c3c(N)ncnc32)cc(Cl)c(F)c1C1CNC(=O)C1 (single isomer, unassigned) [Example 1B, 4-{3-[1-(4-amino-3-methyl-1H-pyrazolo[3,4-d]pyrimidin-1-yl)ethyl]-5-chloro-2-ethoxy-6-fluorophenyl}pyrrolidin-2-one]
IC50 [1]: ≤ 10 nM

CCOc1c(C(C)n2nc(C)c3c(N)ncnc32)cc(Cl)c(F)c1C1CNC(=O)C1 (single isomer, unassigned) [Example 1C]
sensitivity of Pfeiffer cancer cells to anti-proliferative effects in vitro [1]: sensitive

CCOc1c(C(C)n2nc(C)c3c(N)ncnc32)cc(Cl)c(F)c1C1CNC(=O)O1 (single isomer, unassigned) [Example 2C, 5-{3-[1-(4-amino-3-methyl-1H-pyrazolo[3,4-d]pyrimidin-1-yl)ethyl]-5-chloro-2-ethoxy-6-fluorophenyl}-1,3-oxazolidin-2-one]
IC50 [1]: ≤ 10 nM

CCOc1c([C@H](C)n2nc(C)c3c(N)ncnc32)cc(Cl)c(F)c1[C@@H]1CNC(=O)C1.Cl [Compound 1C, (R)-4-(3-((S)-1-(4-amino-3-methyl-1H-pyrazolo[3,4-d]pyrimidin-1-yl)ethyl)-5-chloro-2-ethoxy-6-fluorophenyl)pyrrolidin-2-one hydrochloric acid salt]
CR/CMR ([2]; CLL, N 6): 0 (0) n (%)
Not evaluable/ not assessed ([2]; CLL, N 6): 1 (17) n (%)
ORR ([2]; CLL, N 6): 2 (33 [4-78]) n (% [95% CI])
PD/PMD ([2]; CLL, N 6): 1 (17) n (%)
PR/PMR ([2]; CLL, N 6): 2 (33) n (%)
ORR ([2]; DLBCL): 30%
median duration of response ([2]; DLBCL): 13.5 months
CR/CMR ([2]; DLBCL ABC, N 2): 0 (0) n (%)
Not evaluable/ not assessed ([2]; DLBCL ABC, N 2): 0 n (%)
ORR ([2]; DLBCL ABC, N 2): 1 (50 [1-99]) n (% [95% CI])
PD/PMD ([2]; DLBCL ABC, N 2): 1 (50) n (%)
PR/PMR ([2]; DLBCL ABC, N 2): 1 (50) n (%)
CR/CMR ([2]; DLBCL GCB, N 19): 4 (21) n (%)
Not evaluable/ not assessed ([2]; DLBCL GCB, N 19): 1 (5) n (%)
ORR ([2]; DLBCL GCB, N 19): 6 (32 [13-57]) n (% [95% CI])
PD/PMD ([2]; DLBCL GCB, N 19): 9 (47) n (%)
PR/PMR ([2]; DLBCL GCB, N 19): 2 (11) n (%)
deep responses (>75% decrease from baseline in target lesion size), patients ([2]; DLBCL, 20 evaluable): 10%
CR/CMR ([2]; DLBCL, N 23): 4 (17) n (%)
Not evaluable/ not assessed ([2]; DLBCL, N 23): 1 (4) n (%)
ORR ([2]; DLBCL, N 23): 7 (30 [13-53]) n (% [95% CI])
PD/PMD ([2]; DLBCL, N 23): 11 (48) n (%)
PR/PMR ([2]; DLBCL, N 23): 3 (13) n (%)
durable response ([2]; DLBCL): ~19 months
ORR ([2]; FL): 71%
median duration of response ([2]; FL): not reached
deep responses (>75% decrease from baseline in target lesion size), patients ([2]; FL, 14 evaluable): 50%
CR/CMR ([2]; FL, N 14): 3 (21) n (%)
Not evaluable/ not assessed ([2]; FL, N 14): 1 (7) n (%)
ORR ([2]; FL, N 14): 10 (71 [42-92]) n (% [95% CI])
PD/PMD ([2]; FL, N 14): 2 (14) n (%)
PR/PMR ([2]; FL, N 14): 7 (50) n (%)
durable response ([2]; FL): ~17 months
CR/CMR ([2]; HL, N 10): 0 (0) n (%)
Not evaluable/ not assessed ([2]; HL, N 10): 1 (10) n (%)
ORR ([2]; HL, N 10): 2 (20 [3-56]) n (% [95% CI])
PD/PMD ([2]; HL, N 10): 4 (40) n (%)
PR/PMR ([2]; HL, N 10): 2 (20) n (%)
ORR ([2]; MCL): 67%
median duration of response ([2]; MCL): not reached
deep responses (>75% decrease from baseline in target lesion size), patients ([2]; MCL, 8 evaluable): 38%
CR/CMR ([2]; MCL, N 9): 4 (44) n (%)
Not evaluable/ not assessed ([2]; MCL, N 9): 1 (11) n (%)
ORR ([2]; MCL, N 9): 6 (67 [30-93]) n (% [95% CI])
PD/PMD ([2]; MCL, N 9): 0 (0) n (%)
PR/PMR ([2]; MCL, N 9): 2 (22) n (%)
durable response ([2]; MCL): ≥ 14 months
ORR ([2]; MZL): 78%
median duration of response ([2]; MZL): 4.4 months
deep responses (>75% decrease from baseline in target lesion size), patients ([2]; MZL, 7 evaluable): 57%
responses occurring by the first assessment (~9 weeks) ([2]; MZL, FL, MCL, DLBCL): 93%
CR/CMR ([2]; MZL, N 9): 3 (33) n (%)
Not evaluable/ not assessed ([2]; MZL, N 9): 0 n (%)
ORR ([2]; MZL, N 9): 7 (78 [40-97]) n (% [95% CI])
PD/PMD ([2]; MZL, N 9): 1 (11) n (%)
PR/PMR ([2]; MZL, N 9): 4 (44) n (%)
durable response ([2]; MZL): ~10 months
durable responses among patients receiving QW dosing ([2]; QW dosing): > 6 months
CR/CMR ([2]; WM, N 1): 0 (0) n (%)
Not evaluable/ not assessed ([2]; WM, N 1): 0 n (%)
ORR ([2]; WM, N 1): 1 (100 [3-100]) n (% [95% CI])
PD/PMD ([2]; WM, N 1): 0 (0) n (%)
PR/PMR ([2]; WM, N 1): 1 (100) n (%)
patients who achieved an objective response ([2]; all patients with NHL administered 20 mg QD at time of regimen change): 11 patients
objective responses at the first disease assessment ([2]; of 11 patients with NHL administered 20 mg QD): 10
objective responses in patients previously treated with ibrutinib ([2]; of the 4 patients with MCL): 2 patients
deep responses, patients ([2]; relapsed or refractory B-cell NHL, 10 mg QD to 45 mg QD): > 30%
inhibition of pAKT in whole blood [3]: near-maximal inhibition
Cmax above the IC90 for pAKT inhibition ([4]; 20 mg QD): 16 fold
Ctrough above the IC90 for pAKT inhibition ([4]; 20 mg QD): 2 fold
decrease in AUC with high fat meal ([4]; food effect, 12 patients): 10%
decrease in Cmax with high fat meal compared with fasted state ([4]; food effect, 12 patients): 42%
fed versus fasted geometric mean ratio for AUC ([4]; food effect, 12 patients): 0.90
food effect analysis, timing of meals ([4]; human, in vivo): may be dosed without regard to timing of meals
